Legend:
Assay type in all cases: in vitro ADME
Design in all cases: purchased BD Gentest; host or cells: baculovirus-infected insect cells
UGT1A6 = biological target: T1, UGT1A6 (Homo sapiens, UniProt P19224); assay: Ticagrelor glucuronidation screen, recombinant human UGT1A6; conditions: 10 μM ticagrelor
T1 sequence (P19224 27-532): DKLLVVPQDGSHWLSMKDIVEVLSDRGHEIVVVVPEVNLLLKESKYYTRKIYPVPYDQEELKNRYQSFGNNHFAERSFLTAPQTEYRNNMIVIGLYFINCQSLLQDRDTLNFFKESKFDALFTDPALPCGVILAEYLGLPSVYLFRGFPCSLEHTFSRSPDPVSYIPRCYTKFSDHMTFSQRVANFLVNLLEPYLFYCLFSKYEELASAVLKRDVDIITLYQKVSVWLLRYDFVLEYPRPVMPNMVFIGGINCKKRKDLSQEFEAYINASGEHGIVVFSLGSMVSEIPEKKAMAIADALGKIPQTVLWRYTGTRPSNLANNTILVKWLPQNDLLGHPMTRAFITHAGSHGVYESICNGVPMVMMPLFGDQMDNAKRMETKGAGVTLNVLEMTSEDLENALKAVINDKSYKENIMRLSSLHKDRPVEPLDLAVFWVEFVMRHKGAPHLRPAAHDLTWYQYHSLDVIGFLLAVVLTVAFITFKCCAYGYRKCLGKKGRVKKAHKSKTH
Description: (§1) Ticagrelor glucuronidation was investigated in an in vitro incubation system by using HLM, HIM, and recombinant human UGTs. The incubation system consisted of enzyme sources (HLM, HIM, or human recombinant UGTs), various concentrations of ticagrelor (dissolved in 50% methanol, 1% v/v, 1, 2, 5, 10, 20, 50, 100, 200, 500 μM of final concentration), alamethicin (50 μg/mg protein), 5 mM MgCl2, 100 mM tris-HCL buffer (pH 7.4), and 5 mM UDPGA in a total volume of 100 μl. Alamethicin is a pore-forming polypeptide used to activate UGTs in HLM and HIM ([Fisher et al., 2000]). Preliminary studies were conducted to determine the optimal protein concentrations and incubation times. Linear conditions of ticagrelor-O-Glu formation from ticagrelor, i.e., HLM, 0.2 mg of protein/ml and 60 min, HIM, 0.2 mg of protein/ml and 60 min, and recombinant human UGTs, 0.2 mg of protein/ml and 60 min were selected. The incubation mixture without UDPGA was placed on ice for 15 min to activate UGT by alamethicin. After pre-incubation for 5 min at 37°C, the reactions were started by the addition of UDPGA. After another 60 min of incubation at 37°C, the reaction was terminated by adding 100 μl of acetonitrile containing internal standard (diazepam). The mixture vortexed for 2 min and then centrifuged at 14,000 rpm for 10 min at 4°C. […]

UGT1A3 = biological target: T2, UGT1A3 (Homo sapiens, UniProt P35503); assay: Ticagrelor glucuronidation by recombinant human UGT1A3; conditions: recombinant human UGT1A3, pH 7.4
T2 sequence (P35503 29-534): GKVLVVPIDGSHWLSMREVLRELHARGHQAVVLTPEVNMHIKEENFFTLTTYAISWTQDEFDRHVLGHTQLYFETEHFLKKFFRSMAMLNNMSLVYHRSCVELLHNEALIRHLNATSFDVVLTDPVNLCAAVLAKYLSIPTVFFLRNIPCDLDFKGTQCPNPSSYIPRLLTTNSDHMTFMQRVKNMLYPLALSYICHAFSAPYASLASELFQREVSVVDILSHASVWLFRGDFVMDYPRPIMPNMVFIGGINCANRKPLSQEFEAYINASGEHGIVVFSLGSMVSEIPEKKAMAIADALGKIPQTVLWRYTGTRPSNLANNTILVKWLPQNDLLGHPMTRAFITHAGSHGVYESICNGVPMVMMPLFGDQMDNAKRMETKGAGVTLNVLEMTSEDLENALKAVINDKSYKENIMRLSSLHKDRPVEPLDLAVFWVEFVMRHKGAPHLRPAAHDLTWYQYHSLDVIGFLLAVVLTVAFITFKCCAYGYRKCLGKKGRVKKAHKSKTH
Description: as §1, with “alamethicin.” for “alamethicin. After pre-incubation for 5 min at 37°C, the reactions were started by the addition of UDPGA. After another 60 min of incubation at 37°C, the reaction was terminated by adding 100 μl of acetonitrile containing internal standard (diazepam). The mixture vortexed for 2 min and then centrifuged at 14,000 rpm for 10 min at 4°C.”
(§2) Kinetic analyses were performed using the mean values of triplicate determinations with either pooled HLM, HIM, or recombinant human UGTs. All data were analyzed by nonlinear regression analysis using the GraphPad Prism 6 (GraphPad Software Inc., CA, United States). […] Intrinsic clearance (CLint) was calculated by dividing Vmax by Km.

UGT2B7 = biological target: T3, UGT2B7 (Homo sapiens, UniProt P16662); assay: Ticagrelor glucuronidation by recombinant human UGT2B7; conditions: recombinant human UGT2B7, pH 7.4
T3 sequence (P16662 24-529): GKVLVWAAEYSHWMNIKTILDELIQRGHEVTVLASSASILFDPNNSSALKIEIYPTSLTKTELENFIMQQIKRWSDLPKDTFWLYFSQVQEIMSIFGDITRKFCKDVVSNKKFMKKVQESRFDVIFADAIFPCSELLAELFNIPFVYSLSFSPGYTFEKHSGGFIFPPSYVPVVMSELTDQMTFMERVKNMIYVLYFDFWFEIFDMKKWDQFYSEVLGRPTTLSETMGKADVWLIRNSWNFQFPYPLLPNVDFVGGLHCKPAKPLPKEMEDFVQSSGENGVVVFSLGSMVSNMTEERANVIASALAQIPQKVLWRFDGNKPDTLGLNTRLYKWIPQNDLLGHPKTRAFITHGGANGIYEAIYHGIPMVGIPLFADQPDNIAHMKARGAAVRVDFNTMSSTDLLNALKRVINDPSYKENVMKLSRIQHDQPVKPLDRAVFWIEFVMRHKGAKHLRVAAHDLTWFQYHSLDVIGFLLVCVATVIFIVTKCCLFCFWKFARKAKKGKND
Description: as §1, with “alamethicin.” for “alamethicin. After pre-incubation for 5 min at 37°C, the reactions were started by the addition of UDPGA. After another 60 min of incubation at 37°C, the reaction was terminated by adding 100 μl of acetonitrile containing internal standard (diazepam). The mixture vortexed for 2 min and then centrifuged at 14,000 rpm for 10 min at 4°C.”
as §2

SMILES: CCCSc1nc(N[C@@H]2C[C@H]2c2ccc(F)c(F)c2)c2nnn([C@@H]3C[C@H](OCCO)[C@@H](O)[C@H]3O)c2n1 [Ticagrelor]
- glucuronidation activity for ticagrelor (UGT1A6): no glucuronidation activities
- microsomal CLint (UGT1A3): 0.04 µL/min/mg
- microsomal CLint (UGT2B7): 0.02 µL/min/mg
